Patent publication US8420675B2, “Aminotetrahydroindazoloacetic acids” (Hoffmann-La Roche Inc., priority 2008, dated 2013)

molecular target: T1, human CRTH2 (Homo sapiens, UniProt Q9Y5Y4); experiment: Human CRTH2 Receptor Binding Assay (whole cell, [3H]ramatroban competition); conditions: CHO-K1 cells expressing human CRTH2 and G-alpha16; 20 nM [3H]ramatroban; 1 hour, room temperature
T1 construct: expressed in transfected cells
T1 sequence (Q9Y5Y4 1-395): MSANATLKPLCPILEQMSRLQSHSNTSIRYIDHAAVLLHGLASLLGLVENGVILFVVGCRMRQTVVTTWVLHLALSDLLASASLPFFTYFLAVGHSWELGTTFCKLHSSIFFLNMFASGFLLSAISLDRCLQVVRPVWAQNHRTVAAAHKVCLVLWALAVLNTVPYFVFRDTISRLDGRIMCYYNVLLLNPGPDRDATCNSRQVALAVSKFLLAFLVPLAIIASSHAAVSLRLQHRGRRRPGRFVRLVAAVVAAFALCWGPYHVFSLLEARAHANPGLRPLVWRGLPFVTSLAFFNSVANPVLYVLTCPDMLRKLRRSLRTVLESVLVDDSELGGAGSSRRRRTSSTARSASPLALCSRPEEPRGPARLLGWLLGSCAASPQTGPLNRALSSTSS
Text: A whole cell receptor binding assay using [^3H]ramatroban as the competing radioactive ligand was employed to evaluate the compound binding activity to human CRTH2. The radioactive ligand [^3H]ramatroban was synthesized according to Sugimoto et. al. (Eur. J. Pharmacol. 524, 30-37, 2005) to a specific activity of 42 Ci/mmol.
A cell line stably expressing human CRTH2 was established by transfecting CHO-K1 cells with two mammalian expression vectors that harbored human CRTH2 and G-alpha16 cDNAs, respectively, using FuGene® 6 transfection reagent (from Roche). Stable clones expressing CRTH2 were selected by staining each clone with BM16 (BD Pharmingen™ from BD Biosciences, a division of Becton, Dickinson and Company), which is a rat monoclonal antibody to human CRTH2. The cells were maintained as monolayer cultures in Ham's F-12 medium containing 10% fetal bovine serum, 100 units/mL penicillin, 100 μg/mL streptomycin, 2 mM glutamine, 0.5 mg/mL G418 (geneticin) for CRTH2, and 0.2 mg/mL hygromycin-B (for G-alpha 16). For whole cell receptor binding assay, the monolayer cells were rinsed once with PBS (phosphate buffered saline), dissociated using ethylenediaminetetraacetate (Versene™ EDTA Lonza Inc.), and suspended in PBS containing 10 mM MgCl2 and 0.06% BSA (bovine serum albumin) at 1.5×10^6 cells/mL.
The binding reactions (0.2 mL) were performed in 96-well plates at room temperature in PBS containing 1.5×10^5 cells, 10 mM MgCl2, 0.06% BSA, 20 nM [^3H]ramatroban, and test compound at various concentrations. After 1 hour of binding reactions, the cells were harvested on GF™/B filter microplates (microtiter plates with embedded glass fiber from PerkinElmer, Inc.) and washed 5 times with PBS using a Filtermate™ Harvester (a cell harvester that harvests and washes cells from microplates from PerkinElmer, Inc.). The radioactivities bound to the cells were determined using a microplate scintillation counter (TopCount® NXT, from PerkinElmer, Inc.) after adding 50 μL of Microscint™ 20 scintillation fluid (from PerkinElmer, Inc.) to each well of the filter plates. The radioactivity from non-specific binding was determined by replacing compound with 10 μM of 15(R)-15-methyl PGD2 (from Cayman Chemical Company) in the reaction mixtures. The radioactivity bound to the cells in the absence of compound (total binding) was determined by replacing compound with 0.25% of DMSO (dimethyl sulfoxide) in the reaction mixture. Specific binding data were obtained by subtracting the radioactivity of non-specific binding from each binding data.
The IC50 value is defined as the concentration of the tested compound that is required for 50% inhibition of total specific binding. In order to calculate the IC50 value, the percent inhibition data were determined for 7 concentrations for each compound. The percent inhibition for a compound at each concentration was calculated according to the following formula, [1-(specific binding in the presence of compound)/(total specific binding)]x100. The IC50 value was then obtained by fitting the percent inhibition data to a sigmoidal dose-response (4 parameter logistic) model in the XLfit® software Excel add-in program [from ID Business Solutions Ltd., model 205, where F(x)=(A+(B−A)/(1+((C/x)^D)))].

Structure (SMILES)	IC50
CCOc1cccc(-c2ccc(S(=O)(=O)NC3CCCc4c3cnn4CC(=O)O)cc2)c1 (stereo not drawn) [Example 10-20a, [4-(3′-Ethoxy-biphenyl-4-sulfonylamino)-4,5,6,7-tetrahydro-indazol-1-yl]-acetic acid]	272 nM
COc1ccc(-c2cccc(S(=O)(=O)NC3CCCc4c3cnn4CC(=O)O)c2)cc1 (stereo not drawn) [Example 10-5a, [4-(4′-Methoxy-biphenyl-3-sulfonylamino)-4,5,6,7-tetrahydro-indazol-1-yl]-acetic acid]	369 nM
O=C(O)CCn1ncc2c1CCCC2NS(=O)(=O)c1ccc(-c2ccccc2)cc1 (stereo not drawn) [Example 1-6a, 3-[4-(Biphenyl-4-sulfonylamino)-4,5,6,7-tetrahydro-indazol-1-yl]-propionic acid]	475 nM
CN([C@@H]1CCCc2c1cnn2CC(=O)O)S(=O)(=O)c1cc(Cl)c(Oc2ccc(F)cc2)cc1F [Example 9-30a, ((R)-4-{[5-Chloro-2-fluoro-4-(4-fluoro-phenoxy)-benzenesulfonyl]-methyl-amino}-4,5,6,7-tetrahydro-indazol-1-yl)-acetic acid]	37.7 nM
O=C(O)Cn1ncc2c1CCCC2NS(=O)(=O)c1ccc(-c2cccnc2)cc1 (stereo not drawn) [Example 10-2a, [4-(4-Pyridin-3-yl-benzenesulfonylamino)-4,5,6,7-tetrahydro-indazol-1-yl]-acetic acid]	371 nM
O=C(O)Cn1ncc2c1CCCC2NS(=O)(=O)c1ccc(-c2ccccc2)c(C(F)(F)F)c1 (stereo not drawn) [Example 10-9a, [4-(2-Trifluoromethyl-biphenyl-4-sulfonylamino)-4,5,6,7-tetrahydro-indazol-1-yl]-acetic acid]	71.6 nM
O=C(O)Cn1ncc2c1CCCC2NS(=O)(=O)c1ccc(-c2cc(C(F)(F)F)cc(C(F)(F)F)c2)cc1 (stereo not drawn) [Example 10-24a, [4-(3′,5′-Bis-trifluoromethyl-biphenyl-4-sulfonylamino)-4,5,6,7-tetrahydro-indazol-1-yl]-acetic acid]	97.5 nM
O=C(O)Cn1ncc2c1CCCC2NS(=O)(=O)c1cccc(Oc2ccccc2)c1 (stereo not drawn) [Example 1-5a, [4-(3-Phenoxy-benzenesulfonylamino)-4,5,6,7-tetrahydro-indazol-1-yl]-acetic acid]	164 nM
CC(=O)c1cccc(-c2ccc(S(=O)(=O)NC3CCCc4c3cnn4CC(=O)O)cc2)c1 (stereo not drawn) [Example 10-22a, [4-(3′-Acetyl-biphenyl-4-sulfonylamino)-4,5,6,7-tetrahydro-indazol-1-yl]-acetic acid]	152 nM
Cc1nnc(-c2cccc(S(=O)(=O)NC3CCCc4c3cnn4CC(=O)O)c2)o1 (stereo not drawn) [Example 1-4a, {4-[3-(5-Methyl-[1,3,4]oxadiazol-2-yl)-benzenesulfonylamino]-4,5,6,7-tetrahydro-indazol-1-yl}-acetic acid]	244 nM
O=C(O)Cn1ncc2c1CCC[C@H]2NS(=O)(=O)c1ccc(-c2cccc(Cl)c2)cc1 [Example 10-13a, [(R)-4-(3′-Chloro-biphenyl-4-sulfonylamino)-4,5,6,7-tetrahydro-indazol-1-yl]-acetic acid]	153 nM

Molecules with a lower IC50, results first:

IC50	Structure (SMILES)
16.5 nM	CN([C@@H]1CCCc2c1cnn2CC(=O)O)S(=O)(=O)c1ccc(Oc2ccc(F)c(Cl)c2)c(Cl)c1 [Example 9-24a, ((R)-4-{[3-Chloro-4-(3-chloro-4-fluoro-phenoxy)-benzenesulfonyl]-methyl-amino}-4,5,6,7-tetrahydro-indazol-1-yl)-acetic acid]
13.4 nM	Cc1ccc(Cl)c(Oc2ccc(S(=O)(=O)N(C)[C@@H]3CCCc4c3cnn4CC(=O)O)cc2Cl)c1 [Example 9-18a, ((R)-4-{[3-Chloro-4-(2-chloro-5-methyl-phenoxy)-benzenesulfonyl]-methyl-amino}-4,5,6,7-tetrahydro-indazol-1-yl)-acetic acid]
13.1 nM	O=C(O)Cn1ncc2c1CCC[C@H]2NS(=O)(=O)c1ccc(-c2cccc(C(F)(F)F)c2)cc1 [Example 10-25a, [(R)-4-(3′-Trifluoromethyl-biphenyl-4-sulfonylamino)-4,5,6,7-tetrahydro-indazol-1-yl]-acetic acid]
12.6 nM	CN([C@@H]1CCCc2c1cnn2CC(=O)O)S(=O)(=O)c1ccc(Oc2ccc(C(C)(C)C)cc2)c(Cl)c1 [Example 9-7a, ((R)-4-{[4-(4-tert-Butyl-phenoxy)-3-chloro-benzenesulfonyl]-methyl-amino}-4,5,6,7-tetrahydro-indazol-1-yl)-acetic acid]
12.2 nM	CN([C@@H]1CCCc2c1cnn2CC(=O)O)S(=O)(=O)c1ccc(Oc2cccc(Cl)c2)c(Cl)c1 [Example 9-2a, ((R)-4-{[3-Chloro-4-(3-chloro-phenoxy)-benzenesulfonyl]-methyl-amino}-4,5,6,7-tetrahydro-indazol-1-yl)-acetic acid]
8.8 nM	CC(C)c1ccc(Oc2ncc(S(=O)(=O)N(C)[C@@H]3CCCc4c3cnn4CC(=O)O)cc2Br)cc1 [Example 6-11a, ((R)-4-{[5-Bromo-6-(4-isopropyl-phenoxy)-pyridine-3-sulfonyl]-methyl-amino}-4,5,6,7-tetrahydro-indazol-1-yl)-acetic acid]
8.4 nM	O=C(O)Cn1ncc2c1CCC[C@H]2NS(=O)(=O)c1cnc(Oc2ccccc2Cl)c(Br)c1 [Example 2-9a, {(R)-4-[5-Bromo-6-(2-chloro-phenoxy)-pyridine-3-sulfonylamino]-4,5,6,7-tetrahydro-indazol-1-yl}-acetic acid]
7.2 nM	O=C(O)Cn1ncc2c1CCCC2NS(=O)(=O)c1cnc(Oc2ccc(Cl)cc2)c(Br)c1 (stereo not drawn) [Example 2-1a, {4-[5-Bromo-6-(4-chloro-phenoxy)-pyridine-3-sulfonylamino]-4,5,6,7-tetrahydro-indazol-1-yl}-acetic acid]
6.7 nM	CN([C@@H]1CCCc2c1cnn2CC(=O)O)S(=O)(=O)c1ccc(Oc2ccc(Br)cc2)c(Cl)c1 [Example 9-23a, ((R)-4-{[4-(4-Bromo-phenoxy)-3-chloro-benzenesulfonyl]-methyl-amino}-4,5,6,7-tetrahydro-indazol-1-yl)-acetic acid]
6.5 nM	COc1cc(F)ccc1Oc1ncc(S(=O)(=O)N(C)[C@@H]2CCCc3c2cnn3CC(=O)O)cc1Br [Example 6-13a, ((R)-4-{[5-Bromo-6-(4-fluoro-2-methoxy-phenoxy)-pyridine-3-sulfonyl]-methyl-amino}-4,5,6,7-tetrahydro-indazol-1-yl)-acetic acid]
4.6 nM	CN([C@@H]1CCCc2c1cnn2CC(=O)O)S(=O)(=O)c1cnc(Oc2ccc(Cl)cc2Cl)c(Br)c1 [Example 6-4a, ((R)-4-{[5-Bromo-6-(2,4-dichloro-phenoxy)-pyridine-3-sulfonyl]-methyl-amino}-4,5,6,7-tetrahydro-indazol-1-yl)-acetic acid]
4 nM	CN([C@@H]1CCCc2c1cnn2CCC(=O)O)S(=O)(=O)c1cc(C(F)(F)F)cc(S(=O)(=O)c2ccc(F)cc2)c1 [Example 13-3a, 3-((R)-4-{[3-(4-Fluoro-benzenesulfonyl)-5-trifluoromethyl-benzenesulfonyl]-methyl-amino}-4,5,6,7-tetrahydro-indazol-1-yl)-propionic acid]
2.7 nM	Cc1ccc(S(=O)(=O)c2cc(C(F)(F)F)cc(S(=O)(=O)N(C)[C@@H]3CCCc4c3cnn4CC(=O)O)c2)cc1 [Example 13-2a, ((R)-4-{Methyl-[3-(toluene-4-sulfonyl)-5-trifluoromethyl-benzenesulfonyl]-amino}-4,5,6,7-tetrahydro-indazol-1-yl)-acetic acid]
